The record followed here is patent US11246844B2, “Methods for inhibiting conversion of choline to trimethylamine (TMA)” (The Procter & Gamble Company, priority 2016, dated 2022).

SMILES strings stand for the structures. Counter-ions that a name gives are not always drawn.

The subject of the first assay is Proteus mirabilis 29906 (Pm) lysate. Briefly: Inhibition of conversion of choline to TMA in Proteus mirabilis lysate (Example 2). The format is biochemical. As to conditions: Pm lysate 1.5 mg/mL protein, 50 μM d9-choline chloride, 37° C., two hours, d9-TMA by LC-MS/MS; read-out: TMA Inhibition (IC50, mol/L).
As for `C#CC[N+](C)(C)CC(=C)C(=O)OC` [compound 1, 2-(methoxycarbonyl)-N,N-dimethyl-N-(prop-2-yn-1-yl)prop-2-en-1-aminium], the IC50 was determined as 13.2 nM.

On to `C#CC[N+](C)(C)CCCCC(=O)O` [compound 2, 4-carboxy-N,N-dimethyl-N-(prop-2-yn-1-yl)butan-1-aminium], for which the IC50 is 110 nM.

On to `COC(C[N+](C)(C)CCO)OC` [compound 3, N-(2-hydroxyethyl)-2,2-dimethoxy-N,N-dimethylethan-1-aminium], for which the IC50 is 2400 nM.

Consider `C#CC[N+](C)(C)CC(OC)OC` [compound 4, N-(2,2-dimethoxyethyl)-N,N-dimethylprop-2-yn-1-aminium], for which the IC50 is 525 nM.

For `C#CC[N+](C)(C)CC(O)O` [compound 5, N-(2,2-dihydroxyethyl)-N,N-dimethylprop-2-yn-1-aminium], the IC50 stood at 5310 nM.

As for `C#CC[N+](C)(C)CC(OCC)OCC` [compound 6, N-(2,2-diethoxyethyl)-N,N-dimethylprop-2-yn-1-aminium], the IC50 turned out to be 88200 nM.

For the compound `C#CC[N+](C)(C)CCCCCC(=O)O` [compound 7, 5-carboxy-N,N-dimethyl-N-(prop-2-yn-1-yl)pentan-1-aminium], the IC50 stood at 216 nM.

With `C#CC[N+](C)(C)CC(=C)C(=O)O` [compound 8, 2-carboxy-N,N-dimethyl-N-(prop-2-yn-1-yl)prop-2-en-1-aminium bromide], the IC50 turned out to be 76.4 nM.

For the compound `C#CC[N+](C)(C)CC(N)=O` [compound 9, N-(2-amino-2-oxoethyl)-N,N-dimethylprop-2-yn-1-aminium], the IC50 amounted to 130 nM.

With `C=C(C[N+](C)(C)CCO)C(=O)O` [compound 10, 2-carboxy-N-(2-hydroxyethyl)-N,N-dimethylprop-2-en-1-aminium], the IC50 was determined as 15500 nM.

In the case of `C=C(C#N)C[N+](C)(C)CCO` [compound 11, 2-cyano-N-(2-hydroxyethyl)-N,N-dimethylprop-2-en-1-aminium], the IC50 was 63.1 nM.

As to `C#CC[N+](C)(C)CC(=C)C#N` [compound 12, 2-cyano-N,N-dimethyl-N-(prop-2-yn-1-yl)prop-2-en-1-aminium], the IC50 amounted to 4.74 nM.

As for `C#CC[N+](C)(C)CC(=O)C(=O)OC` [compound 13, N-(3-methoxy-2,3-dioxopropyl)-N,N-dimethylprop-2-yn-1-aminium], the IC50 turned out to be 63.1 nM.

With `C=C(C#N)C[N+]1(C)C2CCCC1CC2` (stereo not shown) [compound 14, 8-(2-cyanoallyl)-8-methyl-8-azabicyclo[3.2.1]octan-8-ium], the IC50 came out at 44600 nM.

Take `C#CC[N+](C)(C)CCN` [compound 15, 2-aminoethyl-dimethyl-prop-2-ynyl-ammonium, hydrochloride]: the IC50 was 3010 nM.

As for `C#CCC[N+](C)(C)CCO` [compound 16, N-(2-hydroxyethyl)-N,N-dimethylbut-3-yn-1-aminium], the IC50 amounted to 15700 nM.

For the compound `C#CC[N+]1(C)CCC(O)CC1` (stereo not shown) [compound 17, 4-hydroxy-1-methyl-1-(prop-2-yn-1-yl)piperidin-1-ium], the IC50 was 124000 nM.

`C#CC[N+]1(C)C2CCCC1CC2` (stereo not shown) [compound 18, 8-methyl-8-(prop-2-yn-1-yl)-8-azabicyclo[3.2.1]octan-8-ium]: the IC50 turned out to be 1610 nM.

For `C#CC[N+](C)(C)CC(=O)O` [compound 19, N-(carboxymethyl)-N,N-dimethylprop-2-yn-1-aminium], the IC50 came to 21.6 nM.

In the case of `C#CC[N+](C)(C)CC(=O)OC` [compound 20, N-(2-methoxy-2-oxoethyl)-N,N-dimethylprop-2-yn-1-aminium], the IC50 amounted to 44.1 nM.

Turning to `C#CC[N+](C)(C)CCO` [compound 21, N-(2-hydroxyethyl)-N,N-dimethyl-2-propyn-1-aminium], the IC50 worked out at 30.4 nM.

For the compound `CC#CC[N+](C)(C)CCO` [compound 22, N-(2-hydroxyethyl)-N,N-dimethyl-2-butyn-1-aminium], the IC50 was found to be 152 nM.

As to `C=CC[N+](C)(C)CC=C` [compound 23, N,N-dimethyl-N-2-propenyl-2-propen-1-aminium], the IC50 amounted to 3030 nM.

As to `C[N+](C)(CCO)CC1CO1` (stereo not shown) [compound 24, 2-hydroxy-N,N-dimethyl-N-(oxiran-2-ylmethyl)ethan-1-aminium], the IC50 was determined as 1940 nM.

On to `C=CC[N+](C)(C)CCO` [compound 25], for which the IC50 was found to be 6710 nM.

Regarding `C#CC[N+](CC#C)(CC#C)CCO` [compound 26, N-(2-hydroxyethyl)-N,N-di(prop-2-yn-1-yl)prop-2-yn-1-aminium], the IC50 was determined as 31700 nM.

Turning to `C#CC[N+](C)(C)CCCO` [compound 28, N-(3-hydroxypropyl)-N,N-dimethylprop-2-yn-1-aminium], the IC50 is 117000 nM.

With `C[N+](C)(CC#N)CCO` [compound 29, N-(cyanomethyl)-2-hydroxy-N,N-dimethylethan-1-aminium], the IC50 amounted to 335000 nM.

On to `C=CC[N+](CC=C)(CC=C)CC=C` [compound 30, N,N,N-tri(prop-2-en-1-yl)prop-2-en-1-aminium], for which the IC50 amounted to 694000 nM.

Take `C#CC[N+](C)(C)CC(=O)O` [compound 31]: the IC50 came out at 1810 nM.

As to `C/C=C/C[N+](C)(C)CCO` [compound 32, [(E)-but-2-enyl]-(2-hydroxyethyl)-dimethyl-ammonium], the IC50 worked out at 899 nM.

As to `C#CC[N+](C)(C)C` [compound 33], the IC50 was 0.115 nM.

With `C#CC[N+](C)(C)CC#C` [compound 34, dimethyl-bis(prop-2-ynyl)ammonium], the IC50 stood at 2.65 nM.

Turning to `C=CC[N+](C)(C)CC#N` [compound 35, allyl-(cyanomethyl)-dimethyl-ammonium], the IC50 is 64.4 nM.

In the case of `C#CC[N+](C)(C)CC#N` [compound 36, cyanomethyl-dimethyl-prop-2-ynyl-ammonium], the IC50 stood at 279 nM.

`C=CC[N+](C)(C)C` [compound 37]: the IC50 came to 50000 nM.

Consider `C#CC[N+](C)(CC#C)CC#C` [compound 38, methyl-tris(prop-2-ynyl)ammonium], for which the IC50 was 81000 nM.

Take `C#CC[N+](CC#C)(CC#C)CC#C` [compound 39, tetrakis(prop-2-ynyl)ammonium]: the IC50 came to 87900 nM.

Take `C#CC[N+](C)(C)CCl` [compound 40, chloromethyl-dimethyl-prop-2-ynyl-ammonium]: the IC50 was 0.0164 nM.

As for `C#CC[N+](C)(C)CBr` [compound 41, bromomethyl-dimethyl-prop-2-ynyl-ammonium], the IC50 was determined as 0.235 nM.

Consider `C#CC[N+](C)(C)CI` [compound 42, iodomethyl-dimethyl-prop-2-ynyl-ammonium], for which the IC50 was 0.463 nM.

As to `C#CC[N+](C)(C)CCBr` [compound 43, 2-bromoethyl-dimethyl-prop-2-ynyl-ammonium], the IC50 turned out to be 140 nM.

The assay is the same for the next values; noted with them: read-out: TMA Inhibition (IC50, mol/L).
Consider `C=CC(=O)OCC[N+](C)(C)C` [compound 27, 2-(acryloyloxy)-N,N,N-trimethylethan-1-aminium], for which the IC50 is 68700 nM.

For a further assay, the system named is plasma TMAO. Briefly: Preclinical screening method: plasma TMAO in mice on 1% Choline Added diet (Example 3). The format is in vivo, mice (C57bl/6). As to conditions: Mus musculus, 24 h; mice, oral gavage once daily, 310 mg/kg/day, day 1, blood 20 hours post gavage; read-out: Remaining plasma TMAO as percentage of plasma TMAO in same day vehicle control (% of control remaining). Here is the method:
Starting at day 0, mice (C57bl/6, ˜19 g, 10 wk of age; n=5/group) were maintained in accordance with the NIH guidelines in a 12:12 hr light:dark cycle and provided with 1% Choline Added diet (Envigo custom formulation prepared, similar to Teklad Global Rodent Diet 2018) ad libitum. Concurrent with introduction of the diet mice were gavaged once daily orally using a 1.5″ 22G ball-tip curved feeding needle to administer compound in 200 μl or less of water at one or multiple of the dose 0, 1.0, 3.1, 10, 31, 100 or 310 mg/kg/day. Urine was collected once daily in the morning. Animals were restrained by hand and bladder was expressed by gentle palpation of the pelvic region. Aliquots of 1-5 μl of urine were centrifuged at 1,300×g for 5 min in a 1.5 mL conical bottom tube with a snap top, to precipitate any potential cellular debris, and supernatants were transferred to a clean screw-cap tube with o-ring seal and stored at −80° C. until analysis. Sixty microliters or less of blood was collected at 20 hours post gavage, into a heparinized capillary tube. Blood was kept at 4° C., then spun using a centrifuge (5 min in centrifuge designed to capillary tubes) to separate plasma and hematocrit within 4 hours after collection. Plasma samples were stored at −80° C.
For measurement of TMA in plasma, samples were acidified (10 mM HCl final) prior to storage at −80° C. TMAO and trimethylamine (TMA) and their d9-isotopologues were quantified using stable isotope dilution HPLC with on-line electrospray ionization tandem mass spectrometry ([…]) methods as described in (Wang Z, Klipfell E, Bennett B J, et al. (2011) Gut flora metabolism of phosphatidylcholine promotes cardiovascular disease. Nature 472:57-63) using d4(1,1,2,2)-choline, d3(methyl)-TMAO, and d3(methyl)-TMA as internal standards. Concentrations of TMAO in urine were adjusted for urinary dilution by analysis of urine creatinine concentration. Samples were taken at different days during the studies and different doses were administered to avoid side effects at higher doses of some of the compounds.
As to `C#CC[N+](C)(C)CC(=C)C(=O)OC` [2-(methoxycarbonyl)-N,N-dimethyl-N-(prop-2-yn-1-yl)prop-2-en-1-aminium bromide], the response vs control in vivo at 310 mg/kg/day worked out at 69%.

In the case of `C#CC[N+](C)(C)CC(=C)C#N` [2-cyano-N,N-dimethyl-N-(prop-2-yn-1-yl)prop-2-en-1-aminium bromide], the response vs control in vivo at 310 mg/kg/day turned out to be 46.2%.

For `C#CC[N+](C)(C)CCCCC(=O)O` [4-carboxy-N,N-dimethyl-N-(prop-2-yn-1-yl)butan-1-aminium bromide], the response vs control in vivo at 310 mg/kg/day was determined as 64.4%.

The assay is the same for the next values; noted with them: Mus musculus, 72 h; mice, oral gavage once daily, 100 mg/kg/day, day 3, blood 20 hours post gavage; read-out: Remaining plasma TMAO as percentage of plasma TMAO in same day vehicle control (% of control remaining).
Take `C#CC[N+](C)(C)CC(=O)O`: the response vs control in vivo at 100 mg/kg/day worked out at 6.06%.

The assay is the same for the next values; noted with them: Mus musculus, po, 24 h, read-out: Remaining plasma TMAO as percentage of plasma TMAO in same day vehicle control (% of control remaining).
In the case of `C#CC[N+](C)(C)CCl` [ID 40, chloromethyl-dimethyl-prop-2-ynyl-ammonium iodide], the response vs control in vivo at 310 mg/kg/day came to 0.43%.

The same assay, now with this note: Mus musculus, po, 72 h, read-out: Remaining plasma TMAO as percentage of plasma TMAO in same day vehicle control (% of control remaining).
As to `C#CC[N+](C)(C)C` [ID 33, trimethyl(prop-2-ynyl)ammonium iodide], the response vs control in vivo at 310 mg/kg/day is 0.41%.
